For twelve compounds, IC50 results are on record in patent US11976083B2, “Inhibitors of peptidylarginine deiminases” (Gilead Sciences, Inc., priority 2020, dated 2024).

The experiment deals with T1, human PAD4 (Homo sapiens, UniProt Q9UM07).
T1 construct: human PAD4 (NM_012387), A2-P663, was PCR amplified; His-SUMO (N, cleaved yes); made in house; host or cells: E. coli BL21(DE3)
T1 sequence (Q9UM07 2-663): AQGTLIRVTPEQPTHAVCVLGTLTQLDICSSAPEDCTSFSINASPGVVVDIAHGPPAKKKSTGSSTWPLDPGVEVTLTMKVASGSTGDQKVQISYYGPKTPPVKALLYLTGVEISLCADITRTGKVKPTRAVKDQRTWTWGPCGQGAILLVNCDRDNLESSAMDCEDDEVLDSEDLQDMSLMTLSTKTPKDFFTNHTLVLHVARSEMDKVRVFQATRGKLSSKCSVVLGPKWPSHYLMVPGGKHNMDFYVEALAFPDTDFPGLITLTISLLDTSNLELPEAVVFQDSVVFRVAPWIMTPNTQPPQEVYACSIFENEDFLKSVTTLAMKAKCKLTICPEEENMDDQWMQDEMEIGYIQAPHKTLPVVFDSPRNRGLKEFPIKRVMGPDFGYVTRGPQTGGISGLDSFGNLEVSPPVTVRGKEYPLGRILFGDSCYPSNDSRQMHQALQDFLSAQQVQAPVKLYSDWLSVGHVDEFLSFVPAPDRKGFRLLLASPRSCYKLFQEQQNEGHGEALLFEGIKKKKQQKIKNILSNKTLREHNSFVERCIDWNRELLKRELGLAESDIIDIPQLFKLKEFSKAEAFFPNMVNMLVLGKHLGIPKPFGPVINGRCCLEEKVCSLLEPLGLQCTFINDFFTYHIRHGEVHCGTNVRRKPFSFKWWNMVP
As to the kind of experiment: In vitro PAD4 BAEE biochemical assay. To be noted: BAEE substrate 3 mM, 5 nM PAD4, 2 mM calcium chloride; geometric mean of multiple experiments. Put shortly: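 Fluorescence read-out (ex 405/em 535 nm) of isoindole formed from ammonia, o-phthalaldehyde and DTT after EDTA stop. Reaction: 5 nM PAD4, 2 mM CaCl2, 3 mM BAEE, 2 h, 25 °C, after 30 min enzyme–compound preincubation. Normalised to BB-Cl-Amidine (50 µM) and DMSO controls.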
The IC50 is the midpoint of a concentration-inhibition curve. Consider `COc1cc(C(=O)N2C[C@H](N)[C@@H]3CC[C@H]2C3)cc2nc(-c3cc4ccc5nc4n3CC(F)(F)CCC[C@@H]3C[C@H]3C(=O)N[C@@H]5C)n(C3CC3)c12` [Example 766, (2~{R},5~{R},7~{R})-14-[5-[(1~{S},4~{R},5~{R})-4-amino-2-azabicyclo[3.2.1]octane-2-carbonyl]-1-cyclopropyl-7-methoxy-benzimidazol-2-yl]-11,11-difluoro-2-methyl-3,13,19-triazatetracyclo [11.5.2.0^{5,7}.0^{16,20}] icosa-1(19),14,16(20),17-tetraen-4-one], for which the IC50 was 28 nM.

Regarding `COc1cc(C(=O)N2C[C@H](N)[C@@H]3CC[C@H]2C3)cc2nc(-c3cc4ccc5nc4n3CCCCC[C@@H]3C[C@H]3C(=O)N[C@@H]5C)n(C3CC3)c12` [Example 767, (2~{R},5~{R},7~{R})-14-[5-[(1~{S},4~{R},5~{R})-4-amino-2-azabicyclo[3.2.1]octane-2-carbonyl]-1-cyclopropyl-7-methoxy-benzimidazol-2-yl]-2-methyl-3,13,19-triazatetracyclo[11.5.2.0^ {5,7}.0^{16,20}]icosa-1(19),14,16(20),17-tetraen-4-one], the IC50 is 18 nM.

As to `COc1cc(C(=O)N2C[C@H](N)[C@@H]3CC[C@H]2C3)cc2nc(-c3cc4ccc5nc4n3CCCCCc3nc(Cl)ccc3C(=O)N[C@@H]5C)c(C3CC3)n12` [Example 768, (2~{R})-17-[7-[(1~{S},4~{R}, 5~{R})-4-amino-2-azabicyclo [3.2.1]octane-2-carbonyl]-3-cyclopropyl-5-methoxy-imidazo[1,2-a]pyridin-2-yl]-8-chloro-2-methyl-3,9,16,22-tetrazatetracyclo[14.5.2.0^ {5,10}.0^{19,23}]tricosa-1(22),5(10),6,8,17,19(23),20-heptaen-4-one], the IC50 was 59 nM.

`COc1cc(C(=O)N2C[C@H](N)[C@@H]3CC[C@H]2C3)cc2nc(-c3cc4ccc5nc4n3CC(F)(F)CCC[C@]3(F)C[C@H]3C(=O)N[C@@H]5C)n(C3CC3)c12` [Example 769, (2~{R},5~{S},7~{S})-14-[5-[(1~{S},4~{R},5~{R})-4-amino-2-azabicyclo[3.2.1]octane-2-carbonyl]-1-cyclopropyl-7-methoxy-benzimidazol-2-yl]-7,11,11-trifluoro-2-methyl-3,13,19-triazatetracyclo [11.5.2.0^{5,7}.0^{16,20}] icosa-1(19),14,16(20), 17-tetraen-4-one]: the IC50 worked out at 13 nM.

In the case of `[2H]C1([2H])[C@H](N)[C@@H]2CC[C@@H](C2)N1C(=O)c1cc(OC)c2c(c1)nc(-c1cc3ccc4nc3n1CCCCCc1ccccc1C(=O)N[C@@H]4C)n2C` [Example 770, (2~{R})-17-[5-[(1~{S},4~{R}, 5~{R})-4-amino-3,3-dideuterio-2-azabicyclo[3.2.1]octane-2-carbonyl]-7-methoxy-1-methyl-benzimidazol-2-yl]-2-methyl-3,16,22-triazatetracyclo[14.5.2.0^ {5,10).0^{19,23}]tricosa-1(22),5(10),6,8,17,19(23), 20-heptaen-4-one], the IC50 is 5 nM.

As for `COc1cc(C(=O)N2C[C@H](N)[C@@H]3CC[C@H]2C3)cc2nc(-c3cc4ccc5nc4n3CC(F)(F)CCCOC(C)(C)C(=O)N[C@@H]5C)n(C3CC3)c12` [Example 771, (11~{R})-17-[5-[(1~{S),4~{R}, 5~{R})-4-amino-2-azabicyclo [3.2.1]octane-2-carbonyl]-1-cyclopropyl-7-methoxy-benzimidazol-2-yl]-3,3-difluoro-8,8,11-trimethyl-7-oxa-1,10,19-triazatricyclo[10.5.2.0^ {15,18}]nonadeca-12(19),13,15(18),16-tetraen-9-one], the IC50 was determined as 28 nM.

In the case of `COc1cc(C(=O)N2C[C@H](N)[C@@H]3CC[C@H]2C3)cc2nc(-c3cc4ccc5nc4n3C[C@H]3C[C@H]3CC[C@]3(F)C[C@H]3C(=O)N[C@@H]5C)n(C3CC3)c12` [Example 772, (3~{S},5~{R},8~{S},10~ {S},13~{R})-19-[5-[(1~{S},4~ {R},5~{R})-4-amino-2-azabicyclo[3.2.1]octane-2-carbonyl]-1-cyclopropyl-7-methoxy-benzimidazol-2-yl]-8-fluoro-13-methyl-1,12,21-triazapentacyclo[12.5.2.0^ {3,5).0^{8,10}.0^{17,20}] henicosa-14(21), 15,17(20),18-tetraen-11-one], the IC50 came to 6 nM.

Turning to `C[C@H]1NC(=O)C2(CC2)OCCCC(F)(F)Cn2c(-c3nc4cc(C(=O)N5C[C@H](N)[C@@H]6CC[C@H]5C6)cc(F)c4n3C3CC3)cc3ccc1nc32` [Example 773, (11~{R})-17-[5-[(1~{S},4~{R}, 5~{R})-4-amino-2-azabicyclo [3.2.1]octane-2-carbonyl]-1-cyclopropyl-7-fluoro-benzimidazol-2-yl]-3,3-difluoro-11-methyl-spiro[7-oxa-1,10,19-triazatricyclo[10.5.2.0^ {15,18}]nonadeca-12(19),13,15(18),16-tetraene-8,1′-cyclopropane]-9-one], the IC50 is 16 nM.

With `C[C@H]1NC(=O)c2ccc(Cl)nc2CCCCCn2c(-c3nc4cc(C(=O)N5CC[C@H]6CC[C@@H]5[C@@H]6N)cc(F)c4n3C3CC3)cc3ccc1nc32` [Example 774, (2~{R})-17-[5-[(1~{R},5~{R}, 8~{R})-8-amino-2-azabicyclo [3.2.1]octane-2-carbonyl]-1-cyclopropyl-7-fluoro-benzimidazol-2-yl]-8-chloro-2-methyl-3,9,16,22-tetrazatetracyclo[14.5.2.0^ {5,10).0^{19,23}]tricosa-1(22),5(10),6,8,17,19(23),20-heptaen-4-one], the IC50 turned out to be 33 nM.

As for `C[C@H]1NC(=O)[C@H]2[C@H](CCCCCn3c(-c4nc5cc(C(=O)N6C[C@H](N)[C@@H]7CC[C@H]6C7)cc(F)c5n4C4CC4)cc4ccc1nc43)C2(F)F` [Example 775, (2~{R},5~{R},7~{S})-14-[5-[(1~{S},4~{R},5~{R})-4-amino-2-azabicyclo[3.2.1]octane-2-carbonyl]-1-cyclopropyl-7-fluoro-benzimidazol-2-yl]-6,6-difluoro-2-methyl-3,13,19-triazatetracyclo[11.5.2.0^ {5,7).0^{16,20}]icosa-1(19),14,16(20),17-tetraen-4-one], the 50% inhibitory concentration (IC50) turned out to be 29 nM.

Regarding `C[C@H]1NC(=O)c2ccc(C(F)F)nc2CCCCCn2c(-c3nc4cc(C(=O)N5C[C@H](N)[C@@H]6CC[C@H]5C6)cc(F)c4n3[C@@H]3C[C@H]3F)cc3ccc1nc32` [Example 776, (2~{R})-17-[5-[(1~{S},4~{R}, 5~{R})-4-amino-2-azabicyclo [3.2.1]octane-2-carbonyl]-7-fluoro-1-[(1~{R},2~{R})-2-fluorocyclopropyl]benzimidazol-2-yl]-8-(difluoromethyl)-2-methyl-3,9,16,22-tetrazatetracyclo[14.5.2.0^ {5,10).0^{19,23}]tricosa-1(22),5(10),6,8,17,19(23),20-heptaen-4-one], the IC50 was 17 nM.

For the compound `COc1cc(C(=O)N2C[C@H](N)[C@@H]3CC[C@H]2C3)cc2nc(-c3cc4ccc5nc4n3CCCCCc3nc(C(F)F)ccc3C(=O)N[C@@H]5C)c(C)n12` [Example 777, (2~{R})-17-[7-[(1~{S},4~{R},5~ {R})-4-amino-2-azabicyclo [3.2.1]octane-2-carbonyl]-5-methoxy-3-methyl-imidazo[1,2-a]pyridin-2-yl]-8-(difluoromethyl)-2-methyl-3,9,16,22-tetrazatetracyclo [14.5.2.0^{5,10).0^{19,23}] tricosa-1(22),5(10),6,8,17, 19(23),20-heptaen-4-one], the IC50 stood at 17 nM.
